The text below walks through data of patent US20110245316A1, “PREVENTION OR DELAY OF ONSET OF ORAL MUCOSITIS” (SCICLONE PHARMACEUTICALS, INC., priority 2010, published 2011).

In data set [1] the test system is patients receiving CT/RT for head and neck cancer. Nature of the data set: Phase 2 trial: safety and tolerability. Format: in vivo, human. The settings on record: 0.02 or 0.1 mg/kg on each radiation day for up to 7 weeks. An excerpt:
OM is a painful, debilitating, and costly toxicity of different chemoradiotherapy (CT/RT) regimens used to treat head and neck cancer. This trial is a phase 2, randomized, double-blind, dose-ranging, placebo-controlled three-arm study in patients receiving CT/RT for the treatment of head and neck cancer, to assess the safety and tolerability of γ-D-glutamyl-L-tryptophan (SCV-07) as well as its efficacy in delaying the onset of severe OM as assessed by the WHO Oral Mucositis Scale.
59 eligible patients with recently diagnosed, treatment naïve, pathologically-confirmed, non-metastatic squamous cell carcinoma of the oral cavity, oropharynx, hypopharynx or larynx were enrolled and treated with a concomitant regimen of CT/RT consisting of a continuous course of external beam irradiation (IMRT eligible) with a minimum cumulative dose of 50 Gray (Gy) and cisplatin monotherapy administered using standard weekly or tri-weekly dosing regimens (80-100 mg/m^2 administered on Days 0, 21 and 42) or weekly (30-40 mg/m^2). At least two ‘at risk’ intraoral sites were included in the radiation fields and received a cumulative RT dose of at least 50 Gy. Subjects were equally randomized to receive either placebo or one of two doses of γ-D-glutamyl-L-tryptophan (0.02 or 0.1 mg/kg) on each radiation day for up to 7 weeks.

The subject of data set [2] is human head and neck cancer (HNC) lines. Nature of the data set: Xenograft studies: CRT anti-tumor response. The data set is classed as in vivo.

As for `N[C@H](CCC(=O)N[C@@H](Cc1c[nH]c2ccccc12)C(=O)O)C(=O)O` [SCV-07, γ-D-glutamyl-L-tryptophan], the safety and tolerability result in data set [1] was “safe and well tolerated with no drug-related serious adverse events reported”; in data set [1] (listed as γ-D-glutamyl-L-tryptophan) it was “safe and well tolerated”. Besides, in data set [2], the “impact on CRT anti-tumor response” value is “did not impact CRT anti-tumor response”.
